Structures can show the parent of a compound that is named as a salt. Where two headings read alike, the source gives them in different places.
Experiments:
[1] = target: T1, human mast cell chymase (Homo sapiens, UniProt P23946); experiment: Recombinant human mast cell chymase enzymatic activity inhibition; type: biochemical
T1 construct: made in house; host or cells: insect cells (Th5), recombinant baculovirus
T1 sequence (P23946 22-247): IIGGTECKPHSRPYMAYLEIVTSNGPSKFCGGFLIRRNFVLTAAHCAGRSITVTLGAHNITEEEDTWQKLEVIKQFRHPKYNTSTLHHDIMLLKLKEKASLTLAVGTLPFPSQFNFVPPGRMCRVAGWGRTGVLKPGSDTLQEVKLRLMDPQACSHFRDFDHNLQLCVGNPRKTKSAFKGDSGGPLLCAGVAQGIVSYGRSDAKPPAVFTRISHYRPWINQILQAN
Description: Specifically, Heparin Sepharose (Pharmacia) was used for purification from a culture supernatant of insect cells (Th5) infected with recombinant baculovirus containing cDNA coding for human mast cell chymase.
The time-related change in absorbance at 405 nm was measured to determine the inhibiting activity.

[2] = test system: Human chymase-overexpressing mice (TGM); experiment: Angiotensin-elicited blood pressure increase model using chymase-overexpressing mice; type: in vivo; settings: continuous angiotensin I infusion; for suppression of vasopressor effect (blood pressure): compared to control group, combination normal from 10th day, P<0.05
Description: Human chymase-overexpressing mice (hereinafter abbreviated as “TGM”) created by introduction of the human chymase gene with an angiotensin II-producing function were used as the model animals. Specifically, 8- to 10-week-old TGM mice were used, and angiotensin I was continuously infused with a microosmostic pump embedded under the mouse skin (70 μg/kg/min) to create continuous hypertensive mouse models. The continuous infusion of angiotensin I was confirmed to elicit a vasopressor response of about 30 mmHg in the TGM (n=6) with respect to the wild type (n=8), while depressor action was examined in groups administered a chymase inhibitor (Compound No. 33, 0.1% diet, n=7), an ACE inhibitor (temocapril hydrochloride, 2.0 mg/kg/day, n=6), an angiotensin receptor blocker (ARB) (Valsartan, 14 mg/kg/day, n=7) and a chymase inhibitor and ACE inhibitor simultaneously (Compound No. 33, 0.1% diet, and temocapril hydrochloride, 2.0 mg/kg/day, n=6). The letter “n” indicates the number of individuals. […] […].

[3] = test system: hamster chymase; experiment: Accelerated vascular permeation model by intradermal injection of hamster chymase; type: in vivo, Syrian hamsters; settings: 0.1% (w/w) in feed for 5 days; Evans Blue, 30 minutes after intradermal hamster chymase
Description: Compound No. 33 was mixed with powder feed to a content of 0.1% (w/w) to prepare a feed which was given to hamsters (Syrian hamsters, male, 7-week-old) for 5 days. Under ether anesthesia, the hamster backs were shaved and the hamster chymase was intradermally injected (hamster chymase: 1, 0.3, 0.1 μg/site; vehicle: 0.15 M NaCl, 0.1 mg/ml BSA, 10 mM Pi-Na, pH 7.0). Evans Blue (1% (w/v) solution, 5 ml/kg) was intravenously administered just prior to the intradermal injection, and the blue spots produced by chymase intradermal injection were quantified. Specifically, the hamsters were bled to death from the abdominal aorta 30 minutes after intradermal injection, and the skin was sampled using the blueing spots as an index. The sampled skin was placed in a glass test tube, the dye was extracted with 2 ml of EB extract (acetone:0.3% Na2SO4=7:3), and the dye leakage was measured by colorimetry using a spectrophotometer (620 nm).

[4] = test system: hamster myocardial infarction models; settings: Life Sci. 2002, Vol. 71, p. 437; cited from earlier work
[5] = test system: chymase; settings: WO00/51640, J. Med. Chem., 2001, Vol. 44, p. 1286; cited from earlier work
[6] = target: hamster chymase 1 (Mesocricetus auratus, UniProt O08732); experiment: Chymase-inhibiting activity using hamster chymase; type: biochemical; settings: Compound No. 33; read-out: Inhibition constant, Hamster chymase
Description: After adding 2 μl of a DMSO solution containing a compound of the invention to 50 μl of Buffer A (0.5-3.0 M NaCl, 50 mM Tris-HCl, pH 8.0) containing 1-5 ng of the active form human mast cell chymase obtained in Example 1, there was added 50 μl of Buffer A containing 0.5 mM succinyl-alanyl-histidyl-prolyl-phenylalanylparanitroanilide (Bachem) as a substrate, and reaction was conducted at room temperature for 5 minutes. The time-related change in absorbance at 405 nm was measured to determine the inhibiting activity.
Hamster chymase was obtained from a crude product extracted from hamster tongue tissue with an acidic buffer solution and subsequently purified with a Phenyl-Sepharose column (elution: 0.15 M NaCl, 50 mM sodium phosphate, pH 6.5, 50% ethylene glycol) and a Heparin-Cellulofine column (elution: 0.5-2.0 M NaCl). The protein was identified as hamster chymase 1 based on the N-terminal amino acid sequence, and activity inhibition was measured by the same method as for the human chymase.

[7] = target: Mouse chymase; experiment: Enzyme selectivity: mouse chymase inhibition; type: biochemical; settings: Compound No. 33; read-out: Inhibition constant, Mouse chymase
[8] = target: Chymotrypsin (Bos taurus, UniProt P00766); experiment: Enzyme selectivity: chymotrypsin inhibition; type: biochemical; settings: Compound No. 33; read-out: Inhibition constant, Chymotrypsin
[9] = target: T2, Trypsin (Bos taurus, UniProt P00760); experiment: Enzyme selectivity: trypsin inhibition; type: biochemical; settings: Compound No. 33; read-out: Inhibition constant, Trypsin
T2 construct: gene PRSS1
T2 sequence (P00760 24-246): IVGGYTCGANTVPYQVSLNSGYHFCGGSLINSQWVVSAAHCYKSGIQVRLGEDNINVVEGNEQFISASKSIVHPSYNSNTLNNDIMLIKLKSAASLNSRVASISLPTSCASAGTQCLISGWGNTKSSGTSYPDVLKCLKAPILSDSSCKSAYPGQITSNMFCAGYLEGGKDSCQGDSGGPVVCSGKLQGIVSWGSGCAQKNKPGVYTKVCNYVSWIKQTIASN

[10] = target: Human tryptase (Homo sapiens, UniProt Q15661); experiment: Enzyme selectivity: human tryptase inhibition; type: biochemical; settings: Compound No. 33; read-out: Inhibition constant, Human tryptase
[11] = Blood drug concentrations upon oral administration to hamsters; type: in vivo; settings: hamster, serum, 0.1% (w/w) in feed for 5 days, mean±S.E., N=4, read-out: hamster serum concentration of the parent drug
Description: The chymase inhibitor designated as Compound No. 33 was mixed with MF powder feed to a content of 0.1% (w/w) to prepare a hamster feed which was given to hamsters for 5 days. Blood was sampled from the abdominal aorta under ether anesthesia, the serum was extracted, and the serum compound concentrations were measured by high-performance liquid chromatography.

[12] = test system: canine myocardial infarction models; settings: 75th Annual Meeting of the Japanese Pharmacological Society; cited from earlier work
[13] = recombinant active form human mast cell chymase, room temperature 5 minutes, absorbance 405 nm, read-out: IC50, human mast cell chymase inhibiting activity
[14] = stated in parentheses for Compounds A and B, read-out: human chymase IC50 (reference compounds)

Sequence of hamster chymase 1 (O08732 entry or part of it): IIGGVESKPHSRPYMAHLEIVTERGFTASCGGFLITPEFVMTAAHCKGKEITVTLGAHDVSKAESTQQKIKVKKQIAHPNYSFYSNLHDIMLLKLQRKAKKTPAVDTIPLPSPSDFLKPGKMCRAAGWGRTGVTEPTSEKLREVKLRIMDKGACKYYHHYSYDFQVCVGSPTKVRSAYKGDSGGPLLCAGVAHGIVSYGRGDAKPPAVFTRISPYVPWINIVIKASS
Sequence of Human tryptase (Q15661 31-275): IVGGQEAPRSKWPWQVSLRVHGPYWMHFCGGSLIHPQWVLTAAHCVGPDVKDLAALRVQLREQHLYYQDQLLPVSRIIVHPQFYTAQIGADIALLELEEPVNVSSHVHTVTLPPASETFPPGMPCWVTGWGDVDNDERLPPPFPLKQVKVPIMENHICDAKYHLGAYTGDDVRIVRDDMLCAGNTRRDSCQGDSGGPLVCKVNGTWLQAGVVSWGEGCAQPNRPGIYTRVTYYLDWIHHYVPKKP

IC50 [1, 13] [nM] | Structure (SMILES) | also measured
10 to 100 | O=C(O)CCCSc1nc2ccccc2n1Cc1csc2ccccc12 [compound 20] | –
10 to 100 | Cc1cc2nc(SCCCC(=O)O)n(Cc3csc4ccc(Cl)cc34)c2cc1C [compound 202] | –
– | CCOC(=O)[C@H](CCc1ccccc1)N[C@H]1CS[C@H](c2cccs2)CN(CC(=O)O)C1=O [temocapril hydrochloride] | suppression of cardiac hypertrophy [2]: no notable suppression; suppression of vasopressor effect (blood pressure) [2]: no notable suppression
10 to 100 | COc1ccc2nc(SCCCC(=O)O)n(Cc3csc4cccc(C)c34)c2c1 [compound 242] | –
– | O=C1CN(c2ccc(Cl)cc2)C(=O)N1S(=O)(=O)c1ccc(Cl)cc1 [Compound A, reference compound] | IC50 [1, 14]: 9 nM; dye leakage (accelerated vascular permeation) [3]: no clear suppressing action
10 to 100 | Cc1ccc2c(c1)c(Cn1c(SCCCC(=O)O)nc3ccccc31)cn2C [compound 6] | –
– | CCOc1ccccc1CC1C(=O)N(C(=O)NC(c2ccc(C)cc2)c2ccc(C)cc2)C1Oc1ccc(C(=O)O)cc1 (stereo not shown) [4-[1-{[bis(4-methylphenyl)methyl]carbamoyl}-3-(2-ethoxybenzyl)-4-oxoazetidin-2-yloyl]benzoic acid] | effect when administered alone to hamster myocardial infarction models [4]: exhibit an effect
10 to 100 | Cc1cc2nc(SCCCC(=O)O)n(Cc3csc4cccc(C)c34)c2cc1C [compound 206] | –
10 to 100 | Cc1ccc2scc(Cn3c(SCCCC(=O)O)nc4ccccc43)c2c1 [compound 24] | –
10 to 100 | COc1ccc2c(c1)nc(SCCCC(=O)O)n2Cc1cn(C)c2cccc(Cl)c12 [compound 45] | –
– | [O-][S+](Cc1ccc(Cl)cc1)c1nnc(OCc2ccc(Cl)cc2)c2nccn12 (stereo not shown) [Compound B, reference compound] | IC50 [1, 14]: 30 nM; dye leakage (accelerated vascular permeation) [3]: no clear suppressing action
10 to 100 | COc1ccc2c(c1)nc(SCCCC(=O)O)n2Cc1csc2ccccc12 [compound 56] | –
10 to 100 | Cc1cc(C)c2c(Cn3c(SCCCC(=O)O)nc4ccccc43)csc2c1 [compound 31] | –
10 to 100 | Cc1cc2nc(SCCCC(=O)O)n(Cc3csc4ccccc34)c2cc1C [compound 200] | –
10 to 100 | Cc1ccc2c(c1)nc(SCCCC(=O)O)n2Cc1csc2ccccc12 [compound 128] | –
10 to 100 | COc1ccc2c(c1)nc(SCCCC(=O)O)n2Cc1csc2cccc(C)c12 [compound 62] | –
10 to 100 | Cc1cc2nc(SCCCC(=O)O)n(Cc3cn(C)c4ccccc34)c2cc1C [compound 182] | –
10 to 100 | Cc1ccc2scc(Cn3c(SCCCC(=O)O)nc4cc(C)c(C)cc43)c2c1 [compound 204] | –
10 to 100 | N#Cc1ccc2c(c1)nc(SCCCC(=O)O)n2Cc1csc2ccccc12 [compound 92] | –
– | COC(=O)c1ccc2oc(C(=O)C(Cc3ccccc3)NC(=O)Cn3c(-c4ccccc4OC)ncc(N)c3=O)nc2c1 (stereo not shown) [formula (IV-I)] | chymase inhibiting activity by oral administration to mouse allergy models [5]: exhibit chymase inhibiting activity
– | CCCCC(=O)N(Cc1ccc(-c2ccccc2-c2nnn[nH]2)cc1)[C@H](C(=O)O)C(C)C [Valsartan] | suppression of cardiac hypertrophy [2]: no notable suppression
10 to 100 | O=C(O)CCCSc1nc2ccccc2n1Cc1csc2cccc(Cl)c12 [compound 27] | –
10 to 100 | O=C(O)CCCSc1nc2ccccc2n1Cc1cccc2ccccc12 [Compound No. 33] | Ki ([1]; Compound No. 33, read-out: Inhibition constant, Human chymase): 6.2 ± 2.2 nM; Ki [6]: 30.6 ± 3.8 nM; Ki [7]: 73.4 ± 24.2 nM; Ki [8]: > 10000 nM; Ki [9]: > 10000 nM; Ki [10]: > 10000 nM; concentration at 5 days [11]: 7.89 ± 1.09 µM; dye leakage (accelerated vascular permeation) [3]: decrease in dye leakage; suppression of cardiac hypertrophy [2]: no notable suppression; suppression of vasopressor effect (blood pressure) [2]: no notable suppression
10 to 100 | COc1ccc2nc(SCCCC(=O)O)n(Cc3csc4ccc(C)cc34)c2c1 [compound 240] | –
10 to 100 | Cn1cc(Cn2c(SCCCC(=O)O)nc3ccccc32)c2c(Cl)cccc21 [compound 9] | –
– | O=CNc1cnc(-c2ccccc2)n(CC(=O)NC(Cc2ccccc2)C(=O)C(=O)CCCOc2ccccn2)c1=O (stereo not shown) [formula (III-I)] | efficacy when orally administered to canine myocardial infarction models [12]: efficacious
10 to 100 | O=C(O)CCCSc1nc2ccccc2n1Cc1csc2ccc(Cl)cc12 [compound 22] | –
10 to 100 | Cc1cc2nc(SCCCC(=O)O)n(Cc3cn(C)c4cccc(C)c34)c2cc1C [compound 187] | –
10 to 100 | Cn1cc(Cn2c(SCCCC(=O)O)nc3ccccc32)c2c(F)cccc21 [compound 10] | –
10 to 100 | Cc1cc2nc(SCCCC(=O)O)n(Cc3cn(C)c4cccc(Cl)c34)c2cc1C [compound 189] | –

From US20080318961A1, “Drugs comprising chymase inhibitors and ACE inhibitors as effective ingredients” (Teijin, priority 2001, published 2008)
